# Assay results: article PMC9218685, “Legume Plant Peptides as Sources of Novel Antimicrobial Molecules Against Human Pathogens” (Frontiers in Molecular Biosciences, 2022)
# Peptide text beside a SMILES is read from it.
# System: Acinetobacter baumannii (ATCC 17978)
# Assay: microbe, parasite or virus in culture
# Assay type: cell-based
# Details: for Activity against A. baumannii: 3 h, peptides ≤25 µM; for MBC Acinetobacter baumannii: ATCC 17978, 3 h
# From the text: The following pathogenic bacterial strains were used: The Gram-positive Enterococcus faecalis (ATCC 29212), Staphylococcus aureus (HNCMO112011), Listeria monocytogenes (ATCC 19111) and the Gram-negative Pseudomonas aeruginosa (ATCC 27853), Escherichia coli (ATCC 8739), Salmonella enterica (ATCC 13076), Klebsiella pneumoniae (NCTC 13440), Acinetobacter baumannii (ATCC 17978) obtained from the ATCC (United States) and NCTC (National Collection of Type Cultures–England). For the antifungal experiment the Candida albicans W01 strain ([Ördögh et al., 2014]) was used. Antimicrobial activities of peptides against ∼10^7 log phase bacteria were tested in Potassium-Phosphate Buffer (PPB, pH 7.4) as described by [Jenei et al. (2020)] while anti-Candida assays were done according to [Szerencsés et al. (2021)]. The two-fold dilution series of peptides ranged from 25 μM to 0.125 μM, while that of the antibiotics ampicillin (Merck) and miconazole (Duchefa Biochemie) from […] to 0.1 μM. The lowest concentration of the antimicrobial agents, which completely eliminated viable bacteria or C. albicans were considered as the minimal bactericidal concentration (MBC) and minimal fungicidal concentration (MFC).
# The minimal bactericidal concentrations (MBCs) were determined after 3 h of treatment of ∼10^7 log phase bacteria with 2-fold serial dilution of peptides from 25 µM to 0.8 µM. Only 25 of the 50 cationic M. truncatula peptides had activity at ≤25 µM (Supplementary Table S1). […] Three peptides were only active against two bacterial strains; NCR649 against L. monocytogenes and A. baumannii, NCR281 against L. monocytogenes and P. aeruginosa and NCR350 against A. baumannii and P. aeruginosa. […] None of the anionic NCR peptides affected the survival of the tested bacterial strains.
smiles,measurement,setting,value
"CC1(C)S[C@@H]2[C@H](NC(=O)[C@H](N)c3ccccc3)C(=O)N2[C@H]1C(=O)O [Ampicillin, reference compound]",MBC,"Acinetobacter baumannii, ATCC17978, ~10^7 log phase bacteria, Potassium-Phosphate Buffer pH 7.4, 3 h treatment, two-fold dilution series, lowest concentration completely eliminating viable bacteria, read-out: MBC, minimal bactericidal concentration against A. baumannii",10200 µM
CC[C@H](C)[C@H](NC(=O)[C@H](Cc1ccc(O)cc1)NC(=O)[C@H](CC(N)=O)NC(=O)[C@H](CCCNC(=N)N)NC(=O)[C@@H](NC(=O)[C@H](CCC(N)=O)NC(=O)[C@H](CCCNC(=N)N)NC(=O)[C@H](CS)NC(=O)[C@H](CC(=O)O)NC(=O)[C@H](CCCCN)NC(=O)[C@H](CC(N)=O)NC(=O)[C@@H](NC(=O)[C@@H](NC(=O)[C@H](CS)NC(=O)[C@H](CC(N)=O)NC(=O)[C@H](CCCNC(=N)N)NC(=O)[C@H](CO)NC(=O)[C@@H](NC(=O)[C@@H]1CCCN1C(=O)[C@H](CC(C)C)NC(=O)[C@@H](N)Cc1ccccc1)[C@@H](C)O)[C@@H](C)CC)[C@@H](C)O)C(C)C)C(=O)N[C@@H](C)C(=O)N[C@@H](CCCNC(=N)N)C(=O)N[C@@H](CS)C(=O)N[C@@H](CCCNC(=N)N)C(=O)N[C@@H](CCCCN)C(=O)NCC(=O)N[C@@H](CCC(N)=O)C(=O)N[C@@H](CS)C(=O)N[C@@H](CC(C)C)C(=O)N[C@@H](CCC(N)=O)C(=O)N[C@@H](CO)C(=O)N1CCC[C@H]1C(=O)N[C@H](C(=O)N[C@@H](CCCNC(=N)N)C(=O)O)C(C)C [NCR030] (H-FLPTSRNCITNKDCRQVRNYIARCRKGQCLQSPVR-OH; N-terminus assumed),Activity against A. baumannii,~10^7 log phase bacteria,only against A. baumannii
same,MBC Acinetobacter baumannii,,3.125 µM
CC[C@H](C)[C@H](NC(=O)[C@H](CC(N)=O)NC(=O)[C@H](Cc1c[nH]cn1)NC(=O)[C@@H]1CCCN1C(=O)[C@@H]1CCCN1C(=O)[C@H](CCSC)NC(=O)[C@H](CCCNC(=N)N)NC(=O)[C@@H]1CCCN1C(=O)[C@H](CS)NC(=O)[C@H](CC(=O)O)NC(=O)[C@H](CCCCN)NC(=O)[C@H](CC(=O)O)NC(=O)[C@@H](NC(=O)[C@H](CC(C)C)NC(=O)[C@H](CS)NC(=O)[C@@H]1CCCN1C(=O)[C@H](CCCNC(=N)N)NC(=O)[C@H](CC(C)C)NC(=O)[C@@H](NC(=O)[C@H](CCSC)NC(=O)CNC(=O)[C@@H](N)Cc1ccccc1)[C@@H](C)O)[C@@H](C)O)C(=O)N[C@@H](CCCCN)C(=O)N[C@@H](CS)C(=O)N[C@@H](CCCNC(=N)N)C(=O)N[C@@H](CCCCN)C(=O)NCC(=O)N[C@@H](Cc1c[nH]cn1)C(=O)N[C@@H](CS)C(=O)N[C@H](C(=O)N1CCC[C@H]1C(=O)N[C@H](C(=O)NCC(=O)N[C@@H](CCCCN)C(=O)N1CCC[C@H]1C(=O)N[C@@H](Cc1ccccc1)C(=O)N[C@@H](CCCCN)C(=O)O)[C@@H](C)CC)C(C)C [NCR137] (H-FGMTLRPCLTDKDCPRMPPHNIKCRKGHCVPIGKPFK-OH; N-terminus assumed),MBC Acinetobacter baumannii,,25 µM
CC[C@H](C)[C@H](NC(=O)[C@H](Cc1ccccc1)NC(=O)[C@@H](NC(=O)[C@H](CCCCN)NC(=O)[C@H](CC(=O)O)NC(=O)[C@@H]1CCCN1C(=O)[C@@H](N)Cc1ccccc1)[C@@H](C)CC)C(=O)NCC(=O)N[C@@H](CC(=O)O)C(=O)N[C@@H](CS)C(=O)N[C@@H](CCCCN)C(=O)N[C@H](C(=O)N[C@@H](CC(=O)O)C(=O)N[C@@H](CCCCN)C(=O)N[C@@H](CC(=O)O)C(=O)N[C@@H](CS)C(=O)N[C@@H](CCCCN)C(=O)N1CCC[C@H]1C(=O)N[C@@H](CCCCN)C(=O)N[C@@H](CCCNC(=N)N)C(=O)NCC(=O)N[C@H](C(=O)N[C@@H](CC(N)=O)C(=O)N[C@@H](Cc1ccccc1)C(=O)N[C@@H](CCCNC(=N)N)C(=O)N[C@@H](CS)C(=O)N[C@@H](CCCNC(=N)N)C(=O)N[C@@H](CCCCN)C(=O)NCC(=O)N[C@@H](CCCCN)C(=O)N[C@@H](CS)C(=O)N[C@@H](Cc1ccc(O)cc1)C(=O)N1CCC[C@H]1C(=O)N[C@@H](CCCNC(=N)N)C(=O)O)C(C)C)[C@@H](C)O [NCR032] (H-FPDKIFIGDCKTDKDCKPKRGVNFRCRKGKCYPR-OH; N-terminus assumed),Activity against A. baumannii,~10^7 log phase bacteria,only against A. baumannii
same,MBC Acinetobacter baumannii,,3.125 µM
